Data from PubChem BioAssay AID214 (DTP/NCI, 2004).
Inconclusive results are not listed.

Test system: B6C3F1 mice, colon carcinoma 38 s.c., T/C
Assay: NCI In Vivo Anticancer Drug Screen. Data for tumor model Colon Carcinoma 38 (subcutaneous) in B6C3F1 mice
Details: endpoint: median tumor weight (est.), higher = larger tumour
Procedure: The antitumor activity of compounds was measured in mice bearing transplantable tumors. Survival or tumor size were measured and the results are expressed as the measurement made in the treated group (T) divided by the measurement made in the vehicle treated control group (C). The tumor model used in this assay is Colon Carcinoma 38 (subcutaneous) in B6C3F1 mice

[1] = dose: 25.0 mg/kg/injection, schedule: Q07DX002 (ip), vehicle: saline with Tween-80
[2] = dose: 50.0 mg/kg/injection, schedule: Q07DX002 (ip), vehicle: saline with Tween-80
[3] = dose: 100.0 mg/kg/injection, schedule: Q07DX002 (ip), vehicle: saline with Tween-80
[4] = dose: 400.0 mg/kg/injection, schedule: Q07DX002 (ip), vehicle: saline with Tween-80
[5] = dose: 4.0 mg/kg/injection, schedule: Q07DX002 (ip), vehicle: saline
[6] = dose: 200.0 mg/kg/injection, schedule: Q07DX002 (ip), vehicle: saline with Tween-80
[7] = dose: 50.0 mg/kg/injection, schedule: Q07DX002 (ip), vehicle: Klucel (hydroxypropylcellulose) (HPC)
[8] = dose: 100.0 mg/kg/injection, schedule: Q07DX002 (ip), vehicle: Klucel (hydroxypropylcellulose) (HPC)
[9] = dose: 200.0 mg/kg/injection, schedule: Q07DX002 (ip), vehicle: Klucel (hydroxypropylcellulose) (HPC)
[10] = dose: 150.0 mg/kg/injection, schedule: Q07DX002 (ip), vehicle: saline
[11] = dose: 300.0 mg/kg/injection, schedule: Q07DX002 (ip), vehicle: saline
[12] = dose: 50.0 mg/kg/injection, schedule: Q07DX002 (ip), vehicle: saline
[13] = dose: 100.0 mg/kg/injection, schedule: Q07DX002 (ip), vehicle: saline
[14] = dose: 400.0 mg/kg/injection, schedule: Q07DX002 (ip), vehicle: Klucel (hydroxypropylcellulose) (HPC)
[15] = dose: 200.0 mg/kg/injection, schedule: Q07DX002 (ip), vehicle: saline
[16] = dose: 400.0 mg/kg/injection, schedule: Q07DX002 (ip), vehicle: saline
[17] = dose: 100.0 mg/kg/injection, schedule: Q07DX002 (ip), vehicle: suspension in saline
[18] = dose: 200.0 mg/kg/injection, schedule: Q07DX002 (ip), vehicle: suspension in saline

In the case of `Cc1cc(NCCCCCCCCNc2cc(C)nc3cc(N(C)C)ccc23)c2ccc(N(C)C)cc2n1`, the T/C (dose: 3.12 mg/kg/injection, schedule: Q07DX002 (ip), vehicle: distilled water + Tween-80 + alcohol) is reported as 105 % of control, the T/C (dose: 6.25 mg/kg/injection, schedule: Q07DX002 (ip), vehicle: distilled water + Tween-80 + alcohol) is reported as 78 % of control and the T/C (dose: 12.5 mg/kg/injection, schedule: Q07DX002 (ip), vehicle: distilled water + Tween-80 + alcohol) is reported as 69 % of control. For the same molecule, the T/C (dose: 25.0 mg/kg/injection, schedule: Q07DX002 (ip), vehicle: distilled water + Tween-80 + alcohol) was 160 % of control.
For `CCCCCC1c2cc(O)ccc2OC1N1CCOCC1` (stereo not given), the T/C [1] was 103 % of control, the T/C [2] was 74 % of control and the T/C [3] was 92 % of control. The T/C [4] was 81 % of control.
`CSCS(=O)C[C@H](CO)NC(=O)/C=C/c1c(C)[nH]c(=O)[nH]c1=O` (stereo not given in full) was tested, and the T/C (dose: 2.0 mg/kg/injection, schedule: Q07DX002 (ip), vehicle: saline) was 74 % of control and the T/C [5] was 66 % of control.
For `CCOC(=O)c1c[nH]c2oc(/C=N/N3CC(CN4CCOCC4)OC3=O)cc2c1=O` (stereo not given), the T/C (dose: 150.0 mg/kg/injection, schedule: Q07DX002 (ip), vehicle: other) was 83 % of control, the T/C (dose: 300.0 mg/kg/injection, schedule: Q07DX002 (ip), vehicle: other) was 56 % of control and the T/C (dose: 600.0 mg/kg/injection, schedule: Q07DX002 (ip), vehicle: other) was 29 % of control.
In the case of `O=C(C/C(=N\C(=S)Nc1cc(C(F)(F)F)ccc1Cl)NO)N1CCCC1`, the T/C [2] is reported as 85 % of control, the T/C [3] is reported as 57 % of control and the T/C [6] is reported as 70 % of control. For the same molecule, the T/C [4] was 100 % of control.
`CCCCCNc1ncnc2c(C)[nH]nc12` was tested, and the T/C [7] was 123 % of control, the T/C [8] was 102 % of control and the T/C [9] was 77 % of control.
In the case of `O=CC(O)C(O)C(O)C(O)CO` (stereo not given), the T/C (dose: 75.0 mg/kg/injection, schedule: Q07DX002 (ip), vehicle: saline) is reported as 106 % of control, the T/C [10] is reported as 79 % of control and the T/C [11] is reported as 66 % of control. The T/C (dose: 600.0 mg/kg/injection, schedule: Q07DX002 (ip), vehicle: saline) was 94 % of control and the T/C (dose: 1200.0 mg/kg/injection, schedule: Q07DX002 (ip), vehicle: saline) was 110 % of control.
`CC(=O)N(C)O` was tested, and the T/C [3] was 124 % of control, the T/C [6] was 116 % of control and the T/C [4] was 91 % of control. The T/C (dose: 800.0 mg/kg/injection, schedule: Q07DX002 (ip), vehicle: saline with Tween-80) was 101 % of control.
`O=C1N[C@H]2[C@H](O)[C@H](O)[C@@H](O)[C@H](O)[C@@H]2c2cc3c(c(O)c21)OCO3` was tested, and the T/C (dose: 0.88 mg/kg/injection, schedule: Q01DX008 (ip), vehicle: saline + alcohol) was 113 % of control, the T/C (dose: 1.75 mg/kg/injection, schedule: Q01DX008 (ip), vehicle: saline + alcohol) was 105 % of control and the T/C (dose: 3.5 mg/kg/injection, schedule: Q01DX008 (ip), vehicle: saline + alcohol) was 88 % of control.
With `CC(C)NCC(O)COc1ccc(O)c(O)c1` (stereo not given) the T/C [12] was 97 % of control and the T/C [13] was 94 % of control.
`CSc1ncnc2c1ncn2C1OC(CO)C(O)C1O` (stereo not given) was tested, and the T/C (dose: 25.0 mg/kg/injection, schedule: Q07DX002 (ip), vehicle: saline + alcohol) was 98 % of control, the T/C (dose: 50.0 mg/kg/injection, schedule: Q07DX002 (ip), vehicle: saline + alcohol) was 51 % of control and the T/C (dose: 100.0 mg/kg/injection, schedule: Q07DX002 (ip), vehicle: saline + alcohol) was 49 % of control. For the same molecule, the T/C (dose: 200.0 mg/kg/injection, schedule: Q07DX002 (ip), vehicle: saline + alcohol) was 32 % of control.
In the case of `Oc1c(Cl)cc(Cl)cc1C=NCCSc1ccc(Cl)cc1`, the T/C [7] is reported as 118 % of control, the T/C [8] is reported as 81 % of control and the T/C [9] is reported as 109 % of control. For the same molecule, the T/C [14] was 63 % of control.
For `CC[C@@H](C)[C@@H]1NC(=O)C(NC(=O)C(CC(C)C)N(C)C(=O)C2CCCN2C(=O)C(C)O)C(C)OC(=O)C(Cc2ccc(OC)cc2)N(C)C(=O)C2CCCN2C(=O)C(CC(C)C)NC(=O)C(C)C(=O)C(C(C)C)OC(=O)C[C@H]1O` (stereo not given in full), the T/C (dose: 600.0 micrograms/kg/injection, schedule: Q07DX002 (ip), vehicle: distilled water + alcohol) was 118 % of control.
`Nc1ncn(C2OC(CO)C(O)C2O)c(=O)n1` (stereo not given) was tested, and the T/C [5] was 60 % of control, the T/C (dose: 8.0 mg/kg/injection, schedule: Q07DX002 (ip), vehicle: saline) was 82 % of control and the T/C (dose: 16.0 mg/kg/injection, schedule: Q07DX002 (ip), vehicle: saline) was 33 % of control. The T/C (dose: 32.0 mg/kg/injection, schedule: Q07DX002 (ip), vehicle: saline) was 6 % of control and the T/C (dose: 64.0 mg/kg/injection, schedule: Q07DX002 (ip), vehicle: saline) was 2 % of control.
For `O=C(O)Cc1cccc2c(=O)c(-c3ccccc3)coc12`, the T/C [13] was 177 % of control, the T/C [15] was 76 % of control and the T/C [16] was 121 % of control.
`O=NN(CCF)C(=O)NC1CCCCC1` was tested, and the T/C (dose: 6.25 mg/kg/injection, schedule: Q07DX002 (ip), vehicle: Klucel (hydroxypropylcellulose) (HPC)) was 115 % of control and the T/C (dose: 25.0 mg/kg/injection, schedule: Q07DX002 (ip), vehicle: Klucel (hydroxypropylcellulose) (HPC)) was 77 % of control.
`O=C(O)CC(=O)O.[NH-]CC[NH-].[Pt+2]` was tested, and the T/C (dose: 28.13 mg/kg/injection, schedule: Q07DX002 (ip), vehicle: dextrose) was 59 % of control and the T/C (dose: 56.25 mg/kg/injection, schedule: Q07DX002 (ip), vehicle: dextrose) was 81 % of control.
In the case of `CCCCNc1ccc2nnc(C)n2n1`, the T/C (dose: 50.0 mg/kg/injection, schedule: Q07DX002 (ip), vehicle: DMSO) is reported as 98 % of control and the T/C (dose: 200.0 mg/kg/injection, schedule: Q07DX002 (ip), vehicle: DMSO) is reported as 114 % of control.
`COc1cc2c(ccc3c4cc(OC)c(OC)cc4c[n+](C)c23)cc1O` was tested, and the T/C [17] was 89 % of control and the T/C [18] was 81 % of control.
`C=C(C(=O)O)C(N)C(=O)O` (stereo not given) was tested, and the T/C [10] was 56 % of control and the T/C [11] was 94 % of control.
In the case of `CC(CN1CC(=O)NC(=O)C1)N1CC(=O)NC(=O)C1` (stereo not given), the T/C [8] is reported as 82 % of control, the T/C [9] is reported as 40 % of control and the T/C [14] is reported as 2 % of control. The T/C (dose: 800.0 mg/kg/injection, schedule: Q07DX002 (ip), vehicle: Klucel (hydroxypropylcellulose) (HPC)) was 1 % of control.
With `CCn1cnc2c(=S)nc[nH]c21` the T/C [12] was 85 % of control, the T/C (dose: 50.0 mg/kg/injection, schedule: Q07DX002 (ip), vehicle: suspension in saline) was 92 % of control and the T/C [13] was 73 % of control. The T/C [17] was 58 % of control, the T/C [15] was 55 % of control and the T/C [18] was 16 % of control. The T/C [16] was 1 % of control.
For `COc1ccc(S(=O)(=O)N=N/C=C2\C=CC=CN2O)cc1OC`, the T/C [2] was 175 % of control, the T/C [3] was 91 % of control and the T/C [6] was 166 % of control.
In the case of `Nc1nc(N)c2c(ccc3c2ccn3Cc2cccc([N+](=O)[O-])c2)n1`, the T/C (dose: 3.13 mg/kg/injection, schedule: Q07DX002 (ip), vehicle: saline with Tween-80) is reported as 61 % of control, the T/C (dose: 6.25 mg/kg/injection, schedule: Q07DX002 (ip), vehicle: saline with Tween-80) is reported as 102 % of control and the T/C (dose: 12.5 mg/kg/injection, schedule: Q07DX002 (ip), vehicle: saline with Tween-80) is reported as 85 % of control. For the same molecule, the T/C [1] was 57 % of control and the T/C [2] was 12 % of control.
`NC(CCC(=O)NC(CS)C(=O)NCC(=O)O)C(=O)O` (stereo not given) was tested, and the T/C [12] was 89 % of control, the T/C [13] was 87 % of control and the T/C [15] was 102 % of control. The T/C [16] was 88 % of control and the T/C (dose: 800.0 mg/kg/injection, schedule: Q07DX002 (ip), vehicle: saline) was 113 % of control.
